Laboratory results from patent US6914045B2, “Glycopeptide antibiotics” (Wyeth Holdings Corporation, priority 2001, dated 2005).
Converted amounts (≈) assume the structure as drawn.

Assays:
Experiment in all cases: in vitro antibacterial evaluation, MIC by broth dilution
Assay type in all cases: cell-based
Enterococcus sp. = details: broth dilution, 18 hours at 35° C.
Summary of the method: (§1)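 MIC = lowest antibiotic concentration preventing visible growth; inoculum 5×10^5 CFU/mL; drug range 64-0.06 μg/mL; Muller-Hinton II […]; NCCLS M7-A2 guidance.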

Escherichia coli = details: 18 hours at 35° C.
Summary of the method: as §1

Staphylococcus sp. = details: broth dilution, 18 hours at 35° C.
Summary of the method: as §1

Streptococcus sp. = details: broth dilution, 18 hours at 35° C.
Summary of the method: as §1

Question: With CCCCOC(=O)CCC1OCC2OC(OC3C(CO)OC(Oc4ccc(CC5NC(=O)C(C(C)c6ccccc6)NC(=O)CNC(=O)C(CO)NC(=O)C(C(O)C6CNC(=N)N6C6OC(CO)C(O)C(O)C6O)NC(=O)C(C(O)C6CNC(=N)N6)NC5=O)cc4)C(O)C3O)C(O)C(O)C2O1 (stereo not drawn) [Example 114, Cyclo[glycyl-β-methylphenylalanyl-O-[4-O-[4,6-O-(4-butoxy-4-oxobutylidene)hexopyranosyl]-hexopyranosyl]tyrosyl-3-(2-iminoimidazolidin-4-yl)seryl-3-(3-hexopyranosyl-2-iminoimidazolidin-4-yl)serylseryl]] as the compound, how does the “MIC Enterococcus avium (GC 4558)” value (Enterococcus sp.; Enterococcus avium (GC 4558)) read?
Answer: Its value is 8 µg/mL (≈ 5.57 µM).

Question: What about the “MIC Enterococcus faecalis (ATCC 29212)” value (Enterococcus sp.; Enterococcus faecalis (ATCC 29212)) of the same compound?
Answer: Its value is 4 µg/mL (≈ 2.79 µM).

Question: And the “MIC Enterococcus faecalis (GC 2242)” value (Enterococcus sp.; Enterococcus faecalis (GC 2242))?
Answer: Its value is 4 µg/mL (≈ 2.79 µM).

Question: And the “MIC Enterococcus faecalis (GC 2691)” value (Enterococcus sp.; Enterococcus faecalis (GC 2691))?
Answer: Its value is 4 µg/mL (≈ 2.79 µM).

Question: And the “MIC Enterococcus faecalis (GC 3059)” value (Enterococcus sp.; Enterococcus faecalis (GC 3059))?
Answer: Its value is 8 µg/mL (≈ 5.57 µM).

Question: And the “MIC Enterococcus faecalis (GC 4552)” value (Enterococcus sp.; Enterococcus faecalis (GC 4552))?
Answer: Its value is 4 µg/mL (≈ 2.79 µM).

Question: And the “MIC Enterococcus faecalis (GC 4553)” value (Enterococcus sp.; Enterococcus faecalis (GC 4553))?
Answer: Its value is 8 µg/mL (≈ 5.57 µM).

Question: And the “MIC Enterococcus faecalis (GC 4554)” value (Enterococcus sp.; Enterococcus faecalis (GC 4554))?
Answer: The value was 4 µg/mL (≈ 2.79 µM).

Question: What about the “MIC Enterococcus faecalis (GC 6189)” value (Enterococcus sp.; Enterococcus faecalis (GC 6189)) of the same compound?
Answer: The value was 4 µg/mL (≈ 2.79 µM).

Question: What about the “MIC Enterococcus faecium (GC 2243)” value (Enterococcus sp.; Enterococcus faecium (GC 2243)) of the same compound?
Answer: Its value is 4 µg/mL (≈ 2.79 µM).

Question: And the “MIC Enterococcus faecium (GC 4556)” value (Enterococcus sp.; Enterococcus faecium (GC 4556))?
Answer: The value was 4 µg/mL (≈ 2.79 µM).

Question: What about the “MIC Enterococcus faecium (GC 4557)” value (Enterococcus sp.; Enterococcus faecium (GC 4557)) of the same compound?
Answer: Its value is 2 µg/mL (≈ 1.39 µM).

Question: And the “MIC Enterococcus faecalis (ATCC 29212)” value (Enterococcus sp.; strain ATCC 29212)?
Answer: The value was 4 µg/mL (≈ 2.79 µM).

Question: What about the “MIC Enterococcus faecalis (GC 2242)” value (Enterococcus sp.; strain GC 2242) of the same compound?
Answer: Its value is 4 µg/mL (≈ 2.79 µM).

Question: What about the “MIC Enterococcus faecium (GC 2243)” value (Enterococcus sp.; strain GC 2243) of the same compound?
Answer: Its value is 4 µg/mL (≈ 2.79 µM).

Question: What about the “MIC Enterococcus faecalis (GC 2691)” value (Enterococcus sp.; strain GC 2691) of the same compound?
Answer: The value was 4 µg/mL (≈ 2.79 µM).

Question: What about the “MIC Enterococcus faecalis (GC 3059)” value (Enterococcus sp.; strain GC 3059) of the same compound?
Answer: The value was 8 µg/mL (≈ 5.57 µM).

Question: What about the “MIC Enterococcus faecalis (GC 4552)” value (Enterococcus sp.; strain GC 4552) of the same compound?
Answer: The value was 4 µg/mL (≈ 2.79 µM).

Question: What about the “MIC Enterococcus faecalis (GC 4553)” value (Enterococcus sp.; strain GC 4553) of the same compound?
Answer: Its value is 8 µg/mL (≈ 5.57 µM).

Question: And the “MIC Enterococcus faecalis (GC 4554)” value (Enterococcus sp.; strain GC 4554)?
Answer: The value was 4 µg/mL (≈ 2.79 µM).

Question: And the “MIC Enterococcus faecium (GC 4556)” value (Enterococcus sp.; strain GC 4556)?
Answer: Its value is 4 µg/mL (≈ 2.79 µM).

Question: And the “MIC Enterococcus faecium (GC 4557)” value (Enterococcus sp.; strain GC 4557)?
Answer: The value was 2 µg/mL (≈ 1.39 µM).

Question: What about the “MIC Enterococcus avium (GC 4558)” value (Enterococcus sp.; strain GC 4558) of the same compound?
Answer: The value was 8 µg/mL (≈ 5.57 µM).

Question: And the “MIC Enterococcus faecalis (GC 6189)” value (Enterococcus sp.; strain GC 6189)?
Answer: The value was 4 µg/mL (≈ 2.79 µM).

Question: And the “MIC Escherichia coli (ATCC 25922)” value (Escherichia coli; strain ATCC 25922)?
Answer: The value was 64 µg/mL (≈ 44.6 µM).

Question: What about the “MIC Escherichia coli (GC 4559)” value (Escherichia coli; strain GC 4559) of the same compound?
Answer: Its value is 64 µg/mL (≈ 44.6 µM).

Question: And the “MIC Escherichia coli (GC 4560)” value (Escherichia coli; strain GC 4560)?
Answer: Its value is 1 µg/mL (≈ 0.697 µM).

Question: What about the “MIC Coagulase Negative Staphylococcus (GC 4547)” value (Staphylococcus sp.) of the same compound?
Answer: The value was 2 µg/mL (≈ 1.39 µM).

Question: And the “MIC Coagulase Negative Staphylococcus (GC 4548)” value (Staphylococcus sp.)?
Answer: Its value is 1 µg/mL (≈ 0.697 µM).

Question: And the “MIC Coagulase Negative Staphylococcus (GC 4549)” value (Staphylococcus sp.)?
Answer: The value was 2 µg/mL (≈ 1.39 µM).

Question: And the “MIC Coagulase Negative Staphylococcus (GC 4551)” value (Staphylococcus sp.)?
Answer: Its value is 2 µg/mL (≈ 1.39 µM).

Question: What about the “MIC Coagulase Negative Staphylococcus (GC 6257)” value (Staphylococcus sp.) of the same compound?
Answer: Its value is 1 µg/mL (≈ 0.697 µM).

Question: And the “MIC Staphylococcus aureus (ATCC 29213)” value (Staphylococcus sp.)?
Answer: The value was 2 µg/mL (≈ 1.39 µM).

Question: What about the “MIC Staphylococcus aureus (GC 1131)” value (Staphylococcus sp.) of the same compound?
Answer: The value was 2 µg/mL (≈ 1.39 µM).

Question: What about the “MIC Staphylococcus aureus (GC 3051)” value (Staphylococcus sp.) of the same compound?
Answer: The value was 2 µg/mL (≈ 1.39 µM).

Question: And the “MIC Staphylococcus aureus (GC 3053)” value (Staphylococcus sp.)?
Answer: Its value is 2 µg/mL (≈ 1.39 µM).

Question: And the “MIC Staphylococcus aureus (GC 4541)” value (Staphylococcus sp.)?
Answer: The value was 2 µg/mL (≈ 1.39 µM).

Question: What about the “MIC Staphylococcus aureus (GC 4542)” value (Staphylococcus sp.) of the same compound?
Answer: Its value is 1 µg/mL (≈ 0.697 µM).

Question: And the “MIC Staphylococcus aureus (GC 4544)” value (Staphylococcus sp.)?
Answer: Its value is 2 µg/mL (≈ 1.39 µM).

Question: And the “MIC Staphylococcus aureus (GC 4545)” value (Staphylococcus sp.)?
Answer: The value was 2 µg/mL (≈ 1.39 µM).

Question: What about the “MIC Staphylococcus aureus-SMITH (GC 4543)” value (Staphylococcus sp.) of the same compound?
Answer: Its value is 2 µg/mL (≈ 1.39 µM).

Question: What about the “MIC Staphylococcus haemolyticus (GC 4546)” value (Staphylococcus sp.) of the same compound?
Answer: Its value is 1 µg/mL (≈ 0.697 µM).

Question: What about the “MIC Staphylococcus aureus (GC 1131)” value (Staphylococcus sp.; inoculum 5×10^5 CFU/mL, strain GC 1131) of the same compound?
Answer: Its value is 2 µg/mL (≈ 1.39 µM).

Question: What about the “MIC Staphylococcus aureus (ATCC 29213)” value (Staphylococcus sp.; strain ATCC 29213) of the same compound?
Answer: The value was 2 µg/mL (≈ 1.39 µM).

Question: What about the “MIC Staphylococcus aureus (GC 3051)” value (Staphylococcus sp.; strain GC 3051) of the same compound?
Answer: Its value is 2 µg/mL (≈ 1.39 µM).

Question: And the “MIC Staphylococcus aureus (GC 3053)” value (Staphylococcus sp.; strain GC 3053)?
Answer: Its value is 2 µg/mL (≈ 1.39 µM).

Question: And the “MIC Staphylococcus aureus (GC 4541)” value (Staphylococcus sp.; strain GC 4541)?
Answer: The value was 2 µg/mL (≈ 1.39 µM).

Question: And the “MIC Staphylococcus aureus (GC 4542)” value (Staphylococcus sp.; strain GC 4542)?
Answer: The value was 1 µg/mL (≈ 0.697 µM).

Question: What about the “MIC Staphylococcus aureus (GC 4544)” value (Staphylococcus sp.; strain GC 4544) of the same compound?
Answer: Its value is 2 µg/mL (≈ 1.39 µM).

Question: And the “MIC Staphylococcus aureus (GC 4545)” value (Staphylococcus sp.; strain GC 4545)?
Answer: The value was 2 µg/mL (≈ 1.39 µM).

Question: And the “MIC Staphylococcus haemolyticus (GC 4546)” value (Staphylococcus sp.; strain GC 4546)?
Answer: Its value is 1 µg/mL (≈ 0.697 µM).

Question: And the “MIC Coagulase Negative Staphylococcus (GC 4547)” value (Staphylococcus sp.; strain GC 4547)?
Answer: The value was 2 µg/mL (≈ 1.39 µM).

Question: And the “MIC Coagulase Negative Staphylococcus (GC 4548)” value (Staphylococcus sp.; strain GC 4548)?
Answer: The value was 1 µg/mL (≈ 0.697 µM).

Question: What about the “MIC Coagulase Negative Staphylococcus (GC 4549)” value (Staphylococcus sp.; strain GC 4549) of the same compound?
Answer: The value was 2 µg/mL (≈ 1.39 µM).

Question: And the “MIC Coagulase Negative Staphylococcus (GC 4551)” value (Staphylococcus sp.; strain GC 4551)?
Answer: The value was 2 µg/mL (≈ 1.39 µM).

Question: And the “MIC Coagulase Negative Staphylococcus (GC 6257)” value (Staphylococcus sp.; strain GC 6257)?
Answer: Its value is 1 µg/mL (≈ 0.697 µM).

Question: And the “MIC Staphylococcus aureus-SMITH (GC 4543)” value (Staphylococcus sp.; strain SMITH GC 4543)?
Answer: The value was 2 µg/mL (≈ 1.39 µM).

Question: What about the “MIC Streptococcus agalactiae (GC 4564)” value (Streptococcus sp.; Streptococcus agalactiae (GC 4564)) of the same compound?
Answer: Its value is 0.5 µg/mL (≈ 0.348 µM).

Question: And the “MIC Streptococcus pneumoniae (ATCC 6301)” value (Streptococcus sp.; Streptococcus pneumoniae (ATCC 6301))?
Answer: The value was 0.12 µg/mL (≈ 0.0836 µM).

Question: What about the “MIC Streptococcus pneumoniae (GC 1894)” value (Streptococcus sp.; Streptococcus pneumoniae (GC 1894)) of the same compound?
Answer: Its value is less than 0.06 µg/mL.

Question: What about the “MIC Streptococcus pneumoniae (GC 4565)” value (Streptococcus sp.; Streptococcus pneumoniae (GC 4565)) of the same compound?
Answer: Its value is 0.25 µg/mL (≈ 0.174 µM).

Question: What about the “MIC Streptococcus pyogenes (GC 4563)” value (Streptococcus sp.; Streptococcus pyogenes (GC 4563)) of the same compound?
Answer: Its value is 0.5 µg/mL (≈ 0.348 µM).

Question: What about the “MIC Streptococcus pneumoniae (ATCC 6301)” value (Streptococcus sp.; strain ATCC 6301) of the same compound?
Answer: Its value is 0.12 µg/mL (≈ 0.0836 µM).

Question: What about the “MIC Streptococcus pneumoniae (GC 1894)” value (Streptococcus sp.; strain GC 1894) of the same compound?
Answer: Its value is less than 0.06 µg/mL.

Question: What about the “MIC Streptococcus pyogenes (GC 4563)” value (Streptococcus sp.; strain GC 4563) of the same compound?
Answer: Its value is 0.5 µg/mL (≈ 0.348 µM).

Question: And the “MIC Streptococcus agalactiae (GC 4564)” value (Streptococcus sp.; strain GC 4564)?
Answer: The value was 0.5 µg/mL (≈ 0.348 µM).

Question: What about the “MIC Streptococcus pneumoniae (GC 4565)” value (Streptococcus sp.; strain GC 4565) of the same compound?
Answer: The value was 0.25 µg/mL (≈ 0.174 µM).
